Measurements as given in patent publication US9969699B2, “Cancer cell growth inhibitor, anticancer agent, and method for screening same, as well as novel compound” (Microbial Chemistry Research Foundation, priority 2014, dated 2018).

Tests used:
[1] = Acute toxicity test, oral administration; assay type: in vivo, ICR mice; conditions: orally once; for Organ weight Heart / Organ weight Kidney (Left) / Organ weight Kidney (Right) / Organ weight Liver / Organ weight Lung / Organ weight Spleen / Organ weight Thymus: two weeks after
Excerpt: Two-weeks after the compounds represented by the Structural Formula (1) at the above concentrations were orally administered, the mice were dissected and organs thereof were weighed.
Two-weeks after the compounds represented by the Structural Formula (8) at the above concentrations were orally administered, the mice were dissected and organs thereof were weighed.

[2] = Solubility (remark in acute toxicity test); assay type: physicochemical
[3] = tested on: NIH3T3/EGFRWT cell-transplanted tumor
Excerpt: Note that, “*” denotes t<0.05.

[4] = tested on: NIH3T3/EGFR vIII cell-transplanted tumor
mDia = conditions: in vitro, reported in NPL 1; cited from earlier work
[5] = 30 mg/kg intraperitoneally once a day, day 1 to day 17

With `Nc1ccc(Br)cc1-c1nc2ccccc2[nH]c1=O` [Structural Formula (1), 3-(2-amino-5-bromophenyl)-2(1H)-quinoxalinone] the “Organ weight Heart” value ([1]; 0.098 mg/kg/0.2 mL) was 124.0 mg, the “Organ weight Kidney (Left)” value ([1]; 0.098 mg/kg/0.2 mL) was 183.0 mg and the “Organ weight Kidney (Right)” value ([1]; 0.098 mg/kg/0.2 mL) was 191.0 mg. For the same compound, the “Organ weight Liver” value ([1]; 0.098 mg/kg/0.2 mL) was 1524.0 mg, the “Organ weight Lung” value ([1]; 0.098 mg/kg/0.2 mL) was 163.0 mg and the “Organ weight Spleen” value ([1]; 0.098 mg/kg/0.2 mL) was 132.0 mg. For the same compound, the “Organ weight Heart” value ([1]; 6.25 mg/kg/0.2 mL) was 122.0 mg, the “Organ weight Lung” value ([1]; 6.25 mg/kg/0.2 mL) was 169.0 mg and the “Organ weight Thymus” value ([1]; 6.25 mg/kg/0.2 mL) was 112.0 mg. For the same compound, the “Organ weight Heart” value ([1]; 12.5 mg/kg/0.2 mL) was 143.0 mg, the “Organ weight Kidney (Left)” value ([1]; 12.5 mg/kg/0.2 mL) was 177.0 mg and the “Organ weight Kidney (Right)” value ([1]; 12.5 mg/kg/0.2 mL) was 177.0 mg. For the same compound, the “Organ weight Liver” value ([1]; 12.5 mg/kg/0.2 mL) was 1327.0 mg, the “Organ weight Lung” value ([1]; 12.5 mg/kg/0.2 mL) was 191.0 mg and the “Organ weight Spleen” value ([1]; 12.5 mg/kg/0.2 mL) was 173.0 mg. The “Organ weight Thymus” value ([1]; 12.5 mg/kg/0.2 mL) was 99.0 mg, the “Organ weight Heart” value ([1]; 25 mg/kg/0.2 mL) was 116.0 mg and the “Organ weight Kidney (Left)” value ([1]; 25 mg/kg/0.2 mL) was 157.0 mg. For the same compound, the “Organ weight Kidney (Right)” value ([1]; 25 mg/kg/0.2 mL) was 169.0 mg, the “Organ weight Liver” value ([1]; 25 mg/kg/0.2 mL) was 1290.0 mg and the “Organ weight Lung” value ([1]; 25 mg/kg/0.2 mL) was 176.0 mg. The “Organ weight Spleen” value ([1]; 25 mg/kg/0.2 mL) was 100.0 mg, the “Organ weight Thymus” value ([1]; 25 mg/kg/0.2 mL) was 87.0 mg and the “Organ weight Heart” value ([1]; 50 mg/kg/0.4 mL) was 115.0 mg. For the same compound, the “Organ weight Kidney (Left)” value ([1]; 50 mg/kg/0.4 mL) was 150.0 mg, the “Organ weight Kidney (Right)” value ([1]; 50 mg/kg/0.4 mL) was 155.0 mg and the “Organ weight Liver” value ([1]; 50 mg/kg/0.4 mL) was 1403.0 mg. For the same compound, the “Organ weight Lung” value ([1]; 50 mg/kg/0.4 mL) was 166.0 mg, the “Organ weight Spleen” value ([1]; 50 mg/kg/0.4 mL) was 117.0 mg and the “Organ weight Thymus” value ([1]; 50 mg/kg/0.4 mL) was 95.0 mg. The toxicity ([1]; 0.098 to 50 mg/kg, observed 2 weeks) was “no significant toxicity”, the solubility [2] was “poor solubility” and the “tumor proliferation inhibiting activity” value [3, 5] was “exhibited the tumor proliferation inhibiting activity”. For the same compound, the “tumor proliferation inhibiting activity compared with Gefitinib” value ([3]; 30 mg/kg intraperitoneally vs Gefitinib 200 mg/kg orally) was “comparable”, the “tumor weight versus negative control group” value ([4]; 30 mg/kg intraperitoneally once a day, 17 days after transplantation, t<0.05) was “significantly different” and the “mouse body weight (weight loss)” value [4, 5] was “weight loss was not observed”. For the same compound, the toxicity [4, 5] was “no toxicity”, the “tumor proliferation inhibiting activity” value [4, 5] was “exhibited the tumor proliferation inhibiting activity” and the “tumor proliferation inhibiting activity compared with Gefitinib” value ([4]; 30 mg/kg intraperitoneally vs Gefitinib 100 mg/kg orally) was “comparable”. For the same compound, the “inhibition of mDia-mediated actin assembly” value (mDia) was “inhibit mDia-mediated actin assembly in vitro”.
